Experimental data as given in patent publication US9242970B2 (ACTELION PHARMACEUTICALS LTD., priority 2010, dated 2016).
pIC50: −log10 of the molar value. Read-outs that look alike come from different tables or passages of the source.

Tests used:
human orexin-1 receptor = human orexin-1 receptor (Homo sapiens (Human), UniProt O43613); experiment: In vitro assay: intracellular calcium measurements (FLIPR), antagonistic activity; assay type: cell-based; details: CHO cells, 3 nM orexin-A, marked values are geometric means of n = 2-6, read-out: IC50 OX1
human orexin-2 receptor = human orexin-2 receptor (Homo sapiens (Human), UniProt O43614); experiment: as above; assay type: cell-based; details: CHO cells, 3 nM orexin-A, marked values are geometric means of n = 2-6, read-out: IC50 OX2
[1] = compound incubation time of 10 min

human orexin-1 receptor, sequence (O43613 whole entry): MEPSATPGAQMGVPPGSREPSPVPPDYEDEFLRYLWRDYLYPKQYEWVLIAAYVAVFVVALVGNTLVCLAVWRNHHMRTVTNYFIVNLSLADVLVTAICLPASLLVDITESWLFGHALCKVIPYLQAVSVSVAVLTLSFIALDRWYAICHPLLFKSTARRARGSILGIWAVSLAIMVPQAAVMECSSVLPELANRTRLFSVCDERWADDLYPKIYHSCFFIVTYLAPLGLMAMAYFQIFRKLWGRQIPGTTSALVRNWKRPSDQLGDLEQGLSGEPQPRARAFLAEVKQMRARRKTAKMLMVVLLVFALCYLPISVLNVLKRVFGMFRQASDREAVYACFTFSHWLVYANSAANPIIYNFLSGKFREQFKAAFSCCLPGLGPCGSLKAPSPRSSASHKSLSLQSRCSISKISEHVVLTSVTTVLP
human orexin-2 receptor, sequence (O43614 whole entry): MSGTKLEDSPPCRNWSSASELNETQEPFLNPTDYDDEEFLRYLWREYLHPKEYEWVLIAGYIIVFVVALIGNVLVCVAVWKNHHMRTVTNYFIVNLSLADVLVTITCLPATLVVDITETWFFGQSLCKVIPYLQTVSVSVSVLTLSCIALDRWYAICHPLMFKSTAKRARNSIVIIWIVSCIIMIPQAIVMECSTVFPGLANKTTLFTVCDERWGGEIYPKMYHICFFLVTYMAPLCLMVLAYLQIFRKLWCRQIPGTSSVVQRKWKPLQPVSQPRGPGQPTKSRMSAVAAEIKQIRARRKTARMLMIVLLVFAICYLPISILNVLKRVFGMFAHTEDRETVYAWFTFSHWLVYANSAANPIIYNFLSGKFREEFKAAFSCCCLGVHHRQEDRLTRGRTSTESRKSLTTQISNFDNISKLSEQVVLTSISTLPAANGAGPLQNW

Compound	pIC50 (human orexin-1 receptor; compound incubation 120 min)	pIC50 (human orexin-2 receptor; compound incubation 120 min)	pIC50 (human orexin-1 receptor; [1])	pIC50 (human orexin-2 receptor; [1])
COc1cccc(OC)c1C1CC(C)C(=O)N1Cc1cccc(-n2cccn2)n1 (centres unmarked) [Example 155, 1-((6-(1H-pyrazol-1-yl)pyridin-2-yl)methyl)-5-(2,6-dimethoxyphenyl)-3-methylpyrrolidin-2-one]	6.87	5.93		
COc1cccc(OC)c1C1CCCC(=O)N1Cc1ccc2c(c1)c1ccccc1n2C (centres unmarked) [Example 32, 6-(2,6-dimethoxyphenyl)-1-((9-methyl-9H-carbazol-3-yl)methyl)piperidin-2-one]	7.30	6.88		
CCOc1c(F)cccc1[C@@H]1C[C@H](F)C(=O)N1Cc1ccc(OC(F)(F)F)cc1 (racemic) [Example 331, rac-(3S*,5S*)-5-(2-ethoxy-3-fluorophenyl)-3-fluoro-1-(4-(trifluoromethoxy)benzyl)pyrrolidin-2-one]	5.94	6.36		
COc1cc(F)cc(OC)c1C1CCCC(=O)N1Cc1ccc(OC(F)(F)F)cc1 (centres unmarked) [Example 232, 6-(4-fluoro-2,6-dimethoxyphenyl)-1-(4-(trifluoromethoxy)benzyl)piperidin-2-one]			6.57	7.57
COc1cccc(OC)c1C1CCCC(=O)N1Cc1ccc(OCC2CC2)cc1 (centres unmarked) [Example 208, 1-(4-(cyclopropylmethoxy)benzyl)-6-(2,6-dimethoxyphenyl)piperidin-2-one]			5.95	7.41
COc1cccc(OC)c1C1CCCC(=O)N1Cc1ccc(Cl)cc1 (centres unmarked) [Example 158, 1-(4-chlorobenzyl)-6-(2,6-dimethoxyphenyl)piperidin-2-one]			6.15	6.81
COc1cccc(OC)c1C1CCCCC(=O)N1Cc1ccc(-c2ccccc2)cc1 (centres unmarked) [Example 77, 1-([1,1′-biphenyl]-4-ylmethyl)-7-(2,6-dimethoxyphenyl)azepan-2-one]	6.52	6.73		
O=C1CCC(c2ccccc2-c2ccccc2)N1Cc1ccc(OC(F)(F)F)cc1 (centres unmarked) [Example 287, 5-([1,1′-biphenyl]-2-yl)-1-(4-(trifluoromethoxy)benzyl)pyrrolidin-2-one]	6.04	6.23		
COc1cccc(OC)c1C1CCCC(=O)N1Cc1cccc(-c2nccs2)c1 (centres unmarked) [Example 14, 6-(2,6-dimethoxyphenyl)-1-(3-(thiazol-2-yl)benzyl)piperidin-2-one]	8.40	8.40		
COc1cccc(OC)c1C1CC(C)C(=O)N1Cc1ccc(F)c(-c2ccccn2)c1 (centres unmarked) [Example 153, 5-(2,6-dimethoxyphenyl)-1-(4-fluoro-3-(pyridin-2-yl)benzyl)-3-methylpyrrolidin-2-one]	8.10	6.91		
COc1cccc(OC)c1C1CCC(=O)N1Cc1cccc(-c2csc(C)n2)c1 (centres unmarked) [Example 125, 5-(2,6-dimethoxyphenyl)-1-(3-(2-methylthiazol-4-yl)benzyl)pyrrolidin-2-one]	7.96	7.09		
CCOc1cccc(F)c1C1CC(C)C(=O)N1Cc1ccc2oc3ccccc3c2c1 (centres unmarked) [Example 382, 1-(dibenzo[b,d]furan-2-ylmethyl)-5-(2-ethoxy-6-fluorophenyl)-3-methylpyrrolidin-2-one]	7.06	8.70		
COc1cccc(OC)c1C1CC(C)C(=O)N1Cc1cccc(-c2ncc(C)s2)c1 (centres unmarked) [Example 148, 5-(2,6-dimethoxyphenyl)-3-methyl-1-(3-(5-methylthiazol-2-yl)benzyl)pyrrolidin-2-one]	8.52	7.68		
COc1cccc(OC)c1C1CCCC(=O)N1Cc1cncc(-c2ccccc2)c1 (centres unmarked) [Example 8, 6-(2,6-dimethoxyphenyl)-1-((5-phenylpyridin-3-yl)methyl)piperidin-2-one]	5.77	6.15		
COc1cccc(OC)c1C1CCC(=O)N1Cc1ccc2ccccc2n1 (centres unmarked) [Example 110, 5-(2,6-dimethoxyphenyl)-1-(quinolin-2-ylmethyl)pyrrolidin-2-one]			6.39	6.87
COc1cccc(OC)c1C1CCCCC(=O)N1Cc1cccc(-n2nccn2)c1 (centres unmarked) [Example 101, 1-(3-(2H-1,2,3-triazol-2-yl)benzyl)-7-(2,6-dimethoxyphenyl)azepan-2-one]	8.52	7.48		
COc1ccc(F)c(OC)c1[C@@H]1C[C@H](F)C(=O)N1Cc1ccc(OC(F)(F)F)cc1 (racemic) [Example 332, rac-(3S*,5S*)-3-fluoro-5-(3-fluoro-2,6-dimethoxyphenyl)-1-(4-(trifluoromethoxy)benzyl)pyrrolidin-2-one]	5.99	6.53		
COc1cccc(OC)c1C1CCCC(=O)N1Cc1cccc(-c2nccs2)n1 (centres unmarked) [Example 39, 6-(2,6-dimethoxyphenyl)-1-((6-(thiazol-2-yl)pyridin-2-yl)methyl)piperidin-2-one]	6.75	6.83		
COc1cncc(OC)c1C1CCCC(=O)N1Cc1ccc2oc3ccccc3c2c1 (centres unmarked) [Example 65, 1-(dibenzo[b,d]furan-2-ylmethyl)-6-(3,5-dimethoxypyridin-4-yl)piperidin-2-one]	8.22	9.00		
COc1cccc(F)c1[C@@H]1C[C@@H](Cl)C(=O)N1Cc1ccc(OC(F)(F)F)cc1 (racemic) [Example 324, rac-(3R*,5S*)-3-chloro-5-(2-fluoro-6-methoxyphenyl)-1-(4-(trifluoromethoxy)benzyl)pyrrolidin-2-one]	6.01	5.92		
COc1cccc(OC)c1C1CCCCC(=O)N1Cc1cccc(-n2cccn2)n1 (centres unmarked) [Example 104, 1-((6-(1H-pyrazol-1-yl)pyridin-2-yl)methyl)-7-(2,6-dimethoxyphenyl)azepan-2-one]	7.42	6.37		
COc1cccc(OC)c1C1CCCC(=O)N1Cc1ccc2ncccc2c1 (centres unmarked) [Example 3, 6-(2,6-dimethoxyphenyl)-1-(quinolin-6-ylmethyl)piperidin-2-one]	6.81	6.00		
COc1cc(F)c(C2CCCC(=O)N2Cc2ccc(OC(F)(F)F)cc2)c(F)c1 (centres unmarked) [Example 225, 6-(2,6-difluoro-4-methoxyphenyl)-1-(4-(trifluoromethoxy)benzyl)piperidin-2-one]			5.38	5.26
COc1cccc(OC)c1C1CCCC(=O)N1Cc1ccnc(Br)c1 (centres unmarked) [Example 36, 1-((2-bromopyridin-4-yl)methyl)-6-(2,6-dimethoxyphenyl)piperidin-2-one]	5.80	5.94		
COc1ccnc(OC)c1C1CCCC(=O)N1Cc1cccc(-c2ccccc2)c1 (centres unmarked) [Example 60, 1-([1,1′-biphenyl]-3-ylmethyl)-6-(2,4-dimethoxypyridin-3-yl)piperidin-2-one]	7.41	7.47		
COc1cccc(OC)c1C1CC(C)C(=O)N1Cc1cnn(-c2ccccc2)c1 (centres unmarked) [Example 144, 5-(2,6-dimethoxyphenyl)-3-methyl-1-((1-phenyl-1H-pyrazol-4-yl)methyl)pyrrolidin-2-one]	6.65	6.50		
COc1ccc2c(c1C1CCCC(=O)N1Cc1csc(-c3ccccc3)n1)OCO2 (centres unmarked) [Example 459, 6-(5-methoxybenzo[d][1,3]dioxol-4-yl)-1-((2-phenylthiazol-4-yl)methyl)piperidin-2-one]	6.97	7.40		
CC1CC(c2ccccc2-c2ccccc2)N(Cc2ccc(OC(F)(F)F)cc2)C1=O (centres unmarked) [Example 291, 5-([1,1′-biphenyl]-2-yl)-3-methyl-1-(4-(trifluoromethoxy)benzyl)pyrrolidin-2-one]	5.69	6.34		
